Read-outs that look alike come from different tables or passages of the source.
Tests used:
Sendai virus = type: cell-based
RLR signaling [1] = type: cell-based
RLR signaling [2] = experiment: Q-PCR analysis of IFN-β expression in Hep3B cells transfected with Poly(I:C); type: cell-based; settings: Hep3B control cells; effect markedly impaired upon MCT1 knockdown
MAVS signaling = type: cell-based
VSV-GFP = type: cell-based, Vesicular stomatitis virus
iBMM cells = type: cell-based
RLR signaling [3] = type: cell-based; remark: listed apart in the source
RIG-I/MAVS = target: T1, RIG-I/MAVS (Homo sapiens, UniProt Q7Z434); experiment: Immunoprecipitation of activated RIG-I and MAVS in HEK293 cells; type: cell-based; settings: basal and Sendai virus-infected conditions
T1 construct: host or cells: HEK293 (per the earlier reading)

MAVS [4] = target: T2, MAVS (Homo sapiens, UniProt Q7Z434); experiment: MAVS mitochondria localization in HEK293 cells (immunoblot of mitochondria fraction, immunofluorescence)
Target sequence in this assay (Q7Z434 whole entry): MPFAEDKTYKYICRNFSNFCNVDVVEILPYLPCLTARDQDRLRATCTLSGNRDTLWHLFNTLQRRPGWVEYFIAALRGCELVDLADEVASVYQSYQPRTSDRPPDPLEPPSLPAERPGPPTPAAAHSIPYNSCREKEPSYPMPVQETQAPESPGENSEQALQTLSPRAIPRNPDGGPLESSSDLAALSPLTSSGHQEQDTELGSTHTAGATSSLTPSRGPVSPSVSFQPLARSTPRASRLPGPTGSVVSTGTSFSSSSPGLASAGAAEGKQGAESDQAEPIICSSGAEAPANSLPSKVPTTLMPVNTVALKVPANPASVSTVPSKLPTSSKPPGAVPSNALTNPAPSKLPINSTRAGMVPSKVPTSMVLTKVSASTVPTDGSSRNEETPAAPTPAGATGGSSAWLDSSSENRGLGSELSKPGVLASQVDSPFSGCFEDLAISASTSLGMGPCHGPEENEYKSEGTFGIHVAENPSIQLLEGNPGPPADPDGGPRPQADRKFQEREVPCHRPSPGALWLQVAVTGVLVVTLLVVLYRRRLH

RLR signaling [5] = type: cell-based, mice
MAVS [6] = target: T2, MAVS; experiment: Lactate-MAVS binding (biotin-lactate pulldown, immunoprecipitation, in vitro binding)
Target sequence in this assay (Q7Z434 2-540 limits assumed): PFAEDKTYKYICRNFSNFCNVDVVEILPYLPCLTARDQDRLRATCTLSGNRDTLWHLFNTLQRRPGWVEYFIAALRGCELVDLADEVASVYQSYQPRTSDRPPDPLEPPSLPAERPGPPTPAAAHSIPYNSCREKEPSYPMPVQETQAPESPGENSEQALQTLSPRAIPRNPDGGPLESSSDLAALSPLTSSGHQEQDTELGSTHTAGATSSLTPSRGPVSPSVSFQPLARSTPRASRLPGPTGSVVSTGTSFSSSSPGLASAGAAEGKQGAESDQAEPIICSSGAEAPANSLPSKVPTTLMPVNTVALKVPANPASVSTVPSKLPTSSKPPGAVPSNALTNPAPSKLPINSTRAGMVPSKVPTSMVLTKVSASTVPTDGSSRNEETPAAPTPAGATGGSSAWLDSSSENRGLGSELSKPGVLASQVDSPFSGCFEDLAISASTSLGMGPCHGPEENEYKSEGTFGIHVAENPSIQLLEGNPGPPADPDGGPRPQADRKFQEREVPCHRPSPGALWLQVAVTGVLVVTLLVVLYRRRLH

HSV = tested on: HSV; set-up: species or system mice; settings: mouse, in vivo
VSV = type: in vivo; settings: mice; sodium oxamate (750 mg/kg)
HEK293 cells [7] = experiment: Lactate level measurement in HEK293 cells; type: cell-based; settings: sodium oxamate (20 mM) overnight
MAVS-TBK1-IRF3 = experiment: IRF3 and TBK1 phosphorylation and MAVS aggregation in cells upon RLR activation; type: cell-based; settings: data not shown
Description: In vivo and in vitro MAVS aggregation assays. In vivo MAVS aggregation was performed according to published protocol (Hou et al., 2011). In brief, mitochondria were isolated by using the Mitochondria isolation kit (Thermo 89874), and mitochondria pellet was suspended in 1×sample buffer (0.5×TBE, 10% glycerol, 2% SDS, and 0.0025% bromophenol blue) and subjected to Semi-denaturing detergent agarose gel electrophoresis (SDD-AGE). Samples were loaded onto a vertical 1.5% agarose gel (Bio-Rad). After electrophoresis in the running buffer (1×TBE and 0.1% SDS) for 40 min with a constant voltage of 80-100 V at 4° C., the proteins were transferred to Immobilon membrane (Millipore) for immunoblotting.

HeLa cells = experiment: Immunofluorescence cellular localization of peptides in HeLa cells; type: cell-based; settings: HeLa cells pretreated with peptides; MAVS or Tat antibody staining; data not shown
HK2 = experiment: Immunoblot of HK2 level in the mitochondria fraction of THP1 cells; settings: Poly(I:C) or HTDNA transfection or LPS stimulation
HEK293 cells [8] = experiment: Metabolomics analysis of HEK293 cells after Poly(I:C) transfection; type: cell-based
Source text: To investigate whether energy metabolism participates in regulating type-I IFN production, an unbiased, a systemic metabolomics approach was employed to examine the global metabolic changes during RLR-induced type-I IFN production. Changes of metabolites in glycolysis or oxidative phosphorylation were observed upon transfection of HEK293 cells with Poly(I:C) and harvesting for metabolomics analysis. […] As the direct pyruvate downstream metabolite, Acetyl-CoA production would be expected to decrease due to the reduction in pyruvate level, leading to the slower consumption of OAA for citrate production and thus maintaining the OAA level.

[9] = 2 hours post PolyI:C transfection
[10] = 4 hours post PolyI:C transfection
[11] = 8 hours post PolyI:C transfection

T1 sequence (Q7Z434 whole entry): as the sequence (Q7Z434 whole entry) above

## O=CC[C@@H](O)[C@H](O)[C@H](O)CO [2-DG, 2-deoxy-glucose]
Sendai virus
  virus replication: reduction in virus replication
RLR signaling [1]
  IFN-β and IL-6 production driven by RLR stimuli: markedly enhanced
RLR signaling [2]
  IFN-β expression: promoted IFN-β expression

## N#C/C(=C\c1cn(-c2ccccc2)c2ccccc12)C(=O)O [UK5099]
MAVS signaling
  MAVS signaling and IFN-β induction: decreased
  lactate level: elevated

## O=C[C@H](O)[C@@H](O)[C@@H](O)[C@H](O)CO [galactose]
VSV-GFP
  GFP expression: no GFP expression
  viral replication, as determined by GFP fluorescence: marked reduction in viral replication
iBMM cells
  anaerobic glycolysis-mediated lactate production: impaired
RLR signaling [3]
  IFN-β and IL-6 production upon poly(I:C) or Sev challenge: markedly enhanced

## CC(O)C(=O)O (centres unmarked) [lactate]
RIG-I/MAVS
  interaction between activated RIG-I and MAVS: markedly reduced
MAVS [4]; lactate add-back with oxamate
  effect of oxamate on MAVS mitochondria localization: compromised this effect
RLR signaling [5]
  IFN-β production: consistently reduced
MAVS [6]; biotin-labeled lactate mixed with whole cell extracts (HEK293)
  interaction with RLR signaling proteins in biotin pulldown: specifically interacted with MAVS
MAVS [6]; complexes immunoprecipitated by anti-MAVS antibody from HEK293 cells
  interaction with MAVS in cells under physiological conditions: interacted with lactate
MAVS [6]; pre-incubation with excessive lactate, data not shown
  binding of MAVS to Biotin-lactate: significantly attenuated

## NC(=O)C(=O)[O-].[Na+] [sodium oxamate]
Sendai virus
  virus replication: suppressing virus replication
RIG-I/MAVS
  interaction between activated RIG-I and MAVS: enhanced
HSV
  IFN production: no difference
RLR signaling [1]
  IFN-β production: enhanced
MAVS [4]; oxamate alone
  MAVS mitochondria localization: potentiated
VSV
  lactate production: reduced
RLR signaling [2]
  IFN-β expression: promoted IFN-β expression
HEK293 cells [7]
  lactate level: reduced
MAVS-TBK1-IRF3
  IRF3 and TBK1 phosphorylation and MAVS aggregation upon RLR activation: promoted

## control peptide: corresponding control construct (SEQ ID NO:43) (YGRKKRRQRRRATGVLYLLVVLVWVAAQGVLTVL)
HeLa cells
  entry into cells: found to enter into cells

## polyI:C
HK2
  mitochondria HK2 level: decreased
HEK293 cells [8]; [9]
  Relative Quantity, 2/3-Phosphoglyceric Acid (185.0/97.0): 0.4994
  Relative Quantity, 3HBA (103.0/59.0): 0.6808
  Relative Quantity, Aconitate (173.0/85.0): 0.7655
  Relative Quantity, Alpha-Ketoglutaric Acid (145.0/101.0): 0.94
  Relative Quantity, D-GA3P (168.9/97.0): 0.5042
  Relative Quantity, DHAP (168.9/78.8): 0.6334
  Relative Quantity, F16BP/F26BP/G16BP (339.0/97.0): 0.5666
  Relative Quantity, Fumaric Acid (115.0/71.0): 0.7279
  Relative Quantity, G1P/G6P/F6P/F1P (259.0/97.0): 0.712
  Relative Quantity, Glucose (179.0/89.0): 1.118
  Relative Quantity, Lactate (89.0/43.0): 0.536
  Relative Quantity, Malate (133.0/115.0): 0.6979
  Relative Quantity, Maleic Acid (115.0/71.0 (2)): 0.6194
  Relative Quantity, Malonic Acid (103.0/41.0): 0.5644
  Relative Quantity, Oxalacetate (131.0/113.0): 0.977
  Relative Quantity, PEP (166.9/79.0): 0.3968
  Relative Quantity, Pyruvate (87.0/43.0): 0.683
  Relative Quantity, Succinate (117.0/73.0): 0.7616
HEK293 cells [8]; [10]
  Relative Quantity, 2/3-Phosphoglyceric Acid (185.0/97.0): 0.7985
  Relative Quantity, 3HBA (103.0/59.0): 0.7735
  Relative Quantity, Aconitate (173.0/85.0): 0.6576
  Relative Quantity, Alpha-Ketoglutaric Acid (145.0/101.0): 0.8959
  Relative Quantity, D-GA3P (168.9/97.0): 0.6278
  Relative Quantity, DHAP (168.9/78.8): 0.935
  Relative Quantity, F16BP/F26BP/G16BP (339.0/97.0): 0.9103
  Relative Quantity, Fumaric Acid (115.0/71.0): 0.7094
  Relative Quantity, G1P/G6P/F6P/F1P (259.0/97.0): 0.8706
  Relative Quantity, Glucose (179.0/89.0): 1.093
  Relative Quantity, Lactate (89.0/43.0): 0.657
  Relative Quantity, Malate (133.0/115.0): 0.7843
  Relative Quantity, Maleic Acid (115.0/71.0 (2)): 0.7566
  Relative Quantity, Malonic Acid (103.0/41.0): 0.6946
  Relative Quantity, Oxalacetate (131.0/113.0): 1.006
  Relative Quantity, PEP (166.9/79.0): 0.7706
  Relative Quantity, Pyruvate (87.0/43.0): 0.7115
  Relative Quantity, Succinate (117.0/73.0): 0.8793
HEK293 cells [8]; [11]
  Relative Quantity, 2/3-Phosphoglyceric Acid (185.0/97.0): 1.118
  Relative Quantity, 3HBA (103.0/59.0): 1.035
  Relative Quantity, Aconitate (173.0/85.0): 0.7724
  Relative Quantity, Alpha-Ketoglutaric Acid (145.0/101.0): 0.965
  Relative Quantity, D-GA3P (168.9/97.0): 0.998
  Relative Quantity, DHAP (168.9/78.8): 1.101
  Relative Quantity, F16BP/F26BP/G16BP (339.0/97.0): 1.127
  Relative Quantity, Fumaric Acid (115.0/71.0): 1.057
  Relative Quantity, G1P/G6P/F6P/F1P (259.0/97.0): 1.034
  Relative Quantity, Glucose (179.0/89.0): 0.9641
  Relative Quantity, Lactate (89.0/43.0): 1.05
  Relative Quantity, Malate (133.0/115.0): 0.9353
  Relative Quantity, Maleic Acid (115.0/71.0 (2)): 0.9352
  Relative Quantity, Malonic Acid (103.0/41.0): 0.9823
  Relative Quantity, Oxalacetate (131.0/113.0): 1.032
  Relative Quantity, PEP (166.9/79.0): 1.062
  Relative Quantity, Pyruvate (87.0/43.0): 1.023
  Relative Quantity, Succinate (117.0/73.0): 0.8886

Reference: patent publication US20200377551A1, “PEPTIDE CONSTRUCTS AND METHODS FOR ENHANCEMENT OF INTERFERON PRODUCTION” (Wake Forest University Health Sciences, priority 2019, published 2020)
